In US6979687B1, “Theophylline-based soluble guanylyl cyclase activators KMUP-1 analogues enhanced cyclic GMP and K+ channel activities on rabbit corpus cavernosum smooth muscle and intercavernous pressure activities” (Cho-Jan Liang, priority 2002, dated 2005):
Read-outs that look alike come from different tables or passages of the source.

Tests used:
[1] = test system: PDE (phosphodiesterase) in human platelets; test: Phosphodiesterase assay, soluble PDE from human platelets, cyclic GMP substrate; format: biochemical; settings: at 100 μM, n=3
Experimental: Phosphodiesterase assay. Human platelets were isolated from whole blood using 50 mM Tris-HCl containg 5 mM MgCl2 (pH 7.5) and centrifuged to prepare platelet rich plasma. Washed human platelets were resuspended in 50 mM Tris-HCl containg 5 mM MgCl2 (pH 7.5). Platelets were then disrupted by sonicatio, and soluble PDE preparation was obtained by ultracentrifugation 105000 g for 60 min (4° C). […] After 20 min at 37° C., the samples were heated to 100° C. for 2 min. Ophiophagus Hannah snake venom (10 mg/ml, 10 μl) was then added and incubated at 37 C. for 10 min to convert the 5-GMP to the unchanged nucleosides, guanosine. An ion-exchange resin (200 μl) was added to bind all uncoverted cyclic GMP. After centrifuging, the supernatant was removed for determination in a liquid scintillation counter.

[2] = test system: rabbit aorta smooth muscle cells; test: cGMP levels in rabbit aorta smooth muscle cells; format: cell-based; settings: for guanosine 3′,5′-cyclic monophosphate levels: 0.1, 1.0, 10, 100 μM, in the presence of IBMX (100 μM)
[3] = test system: rabbit corpus cavernosum smooth muscle; test: Rabbit corpus cavernosum smooth muscle relaxation, organ bath; format: cell-based
Source text: (§1) Disruption of endothelium The endothelium lining the lacunar spaces of rabbit corpus cavernosum was disrupted and/or removed by detergent treatment using a modification of a protocol for blood vessels, described elsewhere (kim N. et al., J. Clin. Invest., 88, 112–118, 1991). The intact, isolated penis was placed in a tray containing chilled physiological salt solution (PSS). A 21-guage minicatheter was inserted into each corporal body at the proximal end of the penis. A third minicatheter was inserted into the distal end, below the glans penis, where the right and left corpora communicate. While the distal and one proximal minicatheter were clamped, 3 ml of CHAPS (wt vol.^−) in saline was infused into the remaining proximal catheter. After a short interval (˜20 s), the clamped minicatheters were opened and the preparation was washed by infusion of saline. The corpora cavernosa were then removed and tested for endothelial integrity.
Tissue procurement and organ bath experiments Male rabbits were killed with pentobarbital and their penises excised rapidly and cut longitudinally into equal strips to give 3–6 segments. These segments were incubated in Kerbs-bicarbontate solution (NaCl, 118 mM; NaHCO3, 25 mM; KCl, 4.7 mM; KH2PO4, 1.2 mM; MgSO4, 1.2 mM; glucose, 11 mM; CaCl2, 2.5 mM; pH 7.3–7.4) maintained at 37° C. and aerated with 95% O2 and 5% CO2. Isometric tension was recorded with a force displacement transducer (UGO BASILE, Model 7004, Italy). Rabbit corpus cavernosum smooth muscles were stretched to a resting tension of 2 g and then contracted with phenylephrine (PE, 10 μM). Tissues were also treated with guanethidine (10 μM) to block contractions caused by noradrenaline, released from adrenergic neuron, and treated with atropine (1 μM) to prevent muscarinic effects caused by acetylcholine. When the stable constriction to phenylephrine was reached, concentration-response curves to KMUP-1 (0.001–10 μM) were constructed. Data were expressed as a percentage of the maximum contractile response to phenylephrine. To examine the possible action mechanisms of KMUP-1, the rabbit corpus cavernosum smooth muscles were pretreated with sGC (soluble guanylyl cyclase) inhibitors ODQ (1 μM), a NOS (nitric oxide synthase) inhibitor L-NAME (100 μM), a K^+ channel blocker Tetraethylammonium (TEA, 10 mM), a KATP channel blocker glibenclamide (1 μM), a voltage-dependent K^+ channel blocker 4-AP (100 μM) and Ca^2+-dpendent K^+ channel blockers apamin (1 μM) and charybdotoxin (0.1 μM) for 30 min prior to the addition of KMUP-1. To observe whether the rabbits corpus cavernosum smooth muscle relaxation of KMUP-1 are affected by a nonselective PDE (phosphodiesterase) inhibitor, we investigated the action of KMUP-1 in the presence of IBMX (0.5 μM). In another experiment, rabbit corpus cavernosum smooth muscles were preconstricted with 60 mM KCl. The KCl solution was prepared by substituting NaCl with KCl (60 mM) in an equimolar amount.
as §1, with “(kim” for “(kim N.”, “al.,” for “al., J. Clin. Invest., 88, 112–118,”, “vol.^−1)” for “vol.^−)”, “integrity. […]” for “integrity.”

[4] = test system: rabbit aortic rings; test: Relaxation of phenylephrine-precontracted rabbit aortic rings; format: cell-based
[5] = test system: rabbit corpus cavernosum smooth muscle cells; test: Intracellular cGMP content in rabbit corpus cavernosum smooth muscle cells; format: cell-based; settings: for guanosine 3′,5′-cyclic monophosphate levels: 0.1, 1.0, 10, 100 μM
Experimental: (§2) Culture of rabbit corpus cavernosum smooth muscle cells Rabbit corpus cavernosum smooth muscles were obtained as sterile surgical specimens, the tissue was washed and cut into 1 to 2 mm pieces and placed into culture dishes with Dulbecco's modified Eagle's medium (DMEM) containing 20% fetal bovine serum (FBS), penicillin (100 U ml^−1), streptomycin (100 U ml^−1) and 2 mM Glutamine. After explants attached to the culture dish, usually 1 to 2 days, DMEM (Dulbecco's modified Eagle's medium) supplement with 10% FBS, penicillin, streptomycin, and glutamine were added. Smooth muscle cells migrated out from the explants in 3–5 days. At this time, the explants were removed, and cells were allowed to achieve confluence. Cells were detached using 0.05% trypsin, 0.02% EDTA at 37° C. for 5 minutes to establish secondary cultures. Cultures were maintained for no more than 4 passages. Cellular homogeneity was further confirmed by the presence of smooth muscle specific α-myosin and α-actin immunoreactivity. Indirect immunofluorescence staining for a variety of antigens was carried out by first plating the cells on chamber slides fixing the cells in 3.7% formaldehyde-phosphate buffered saline for 10 minutes and permeabilizing the cells with phosphate buffered saline 0.1% Triton X-100. Cells were then stained with either a mouse monoclonal antibody directed against the amino terminal 10 amino acids of α-smooth muscle actin and α-myosin (Moreland R. B. et al., J Urol., 153, 826–834, 1995).
Measurement of intracellular guanosine 3′,5′-cyclic monophosphate content Intracellular cGMP concentrations in rabbit corpus cavernosum smooth muscle cells were assayed as our previously described (Wu et al., 2001). In brief, cells were finally grown in 24-well plates (10^5 cells well^−1). […] Incubation was terminated by the addition of 6% trichloroacetic acid (TCA). Cell suspensions were sonicated and then centrifuged at 2500 g for 15 min at 4° C. Then, the supernatants were lyophilized and cGMP of each sample was determined using a commercially available radioimmunoassay kits (Amersham Pharmacia Biotech, Buckinghamshire, England).
as §2, with “Rabbit CCSMs (corpus” for “Rabbit corpus”, “smooth muscles)” for “smooth muscles”, “DMEM” for “DMEM (Dulbecco's modified Eagle's medium)”, “(Moreland” for “(Moreland R. B.”, “al.,” for “al., J Urol., 153, 826–834,”
Measurement of intracellular cyclic GMP content Intracellular cGMP concentrations in rabbit CCSM cells were assayed as our previously described (Wu et al., 2001). In brief, cells were finally grown in 24-well plates (10^5 cells well^−1). […] Incubation was terminated by the addition of 6% trichloroacetic acid (TCA). Cell suspensions were sonicated and then centrifuged at 2500 g for 15 min at 4° C. […]

[6] = test system: intracavernous pressure of rabbits; settings: for DT, duration of tumescence / ΔICP, peak increased intracavernous pressure: n=8
Experimental: Measurement of intracavernous pressure Male rabbits were used for the investigation. After sedation with an intramuscular injection of ketamine (10 mg kg^−1), the rabbits were anaesthetized with intraperitoneal pentobarbital (30 mg kg^−1) and maintained with 10 mg kg^−1 if needed. The animals breathed spontaneously. The rabbits were then placed in the supine position, and the body temperature was maintained at 37° C. The femoral artery was cannulated for continuous monitoring of systemic arterial pressure (SAP) and heart rate (HR) via a pressure transducer (Spectramed, Model P10EZ, U.S.A.). Under sterile conditions, the skin overlying the penis was incised and the corpora cavernosum was exposed at the root of the penis. A 25-gunge needle was inserted into the corpus cavernosum smooth muscles for pressure recording. The needle was connected to a three-way stopcock, thus permitting the intracavernous injection of the drugs. The tube was filled with heparinized saline (50 IU 2 h^−1) to prevent clotting.
Normal saline in increasing volumes (0.05, 0.1, 0.2 ml) was injected in four rabbits as a control group. […] In order to minimize the effect of the previous drug, the cavernous body was flushed with 0.2 ml normal saline before each injection and the time interval between each injection was at least 1.5 h.
Measurement of intracavernous pressure Male rabbits were used for the investigation. After sedation with an intramuscular injection of ketamine (10 mg kg^−1), the rabbits were anaesthetized with intraperitoneal pentobarbital (30 mg kg^−1) and maintained with 10 mg kg^−1 if needed. The animals breathed spontaneously. The rabbits were then placed in the supine position, and the body temperature was maintained at 37° C. The femoral artery was cannulated for continuous monitoring of systemic arterial pressure (SAP) and heart rate (HR) via a pressure transducer (Spectramed, Model P10EZ, U.S.A.). Under sterile conditions, the skin overlying the penis was incised and the corpora cavernosum was exposed at the root of the penis. A 25-gunge needle was inserted into the CCSMs for pressure recording. The needle was connected to a three-way stopcock, thus permitting the intracavernous injection of the drugs. The tube was filled with heparinized saline (50 IU 2 h^−1) to prevent clotting.

[7] = pretreatments with methylene blue (100 μM) and ODQ (10 μM)
[8] = in the presence of IBMX (0.5 μM)
[9] = in the presence of IBMX (100 μM)
[10] = 0.2 mg/kg intracavernous injection
[11] = 0.4 mg/kg intracavernous injection
[12] = 0.6 mg/kg intracavernous injection

SMILES	inhibition of PDE activity [1] [%]	guanosine 3′,5′-cyclic monophosphate levels [2]	cGMP levels after methylene blue and ODQ pretreatments [2, 7]	relaxant activities in rabbit CCSMs [3]	effect of combination with IBMX on CCSMs relaxations ([3]; combination with IBMX)	−log EC50 of relaxation ([3]; compound alone, IBMX additive experiment (FIG. 6))	−log EC50 of relaxation [3, 8]	−log EC50 of relaxation in aortic rings ([4]; KMUP-2 (0.01, 0.05, 0.1 μM) alone)	−log EC50 of relaxation in aortic rings [4, 8]	guanosine 3′,5′-cyclic monophosphate levels [5, 9]	cGMP levels after methylene blue and ODQ pretreatments [5, 7]	DT, duration of tumescence [6, 10] [min]	ΔICP, peak increased intracavernous pressure [6, 10] [mmHg]	DT, duration of tumescence [6, 11] [min]	ΔICP, peak increased intracavernous pressure [6, 11] [mmHg]	DT, duration of tumescence [6, 12] [min]	ΔICP, peak increased intracavernous pressure [6, 12] [mmHg]	intracavernous pressure, dose dependence ([6]; 0.2, 0.4, 0.6 mg kg−1 intracavernous)	cGMP levels ([5]; 0.01–10 μM, in the presence of IBMX (100 μM))
COc1ccccc1N1CCN(CCn2cnc3c2c(=O)n(C)c(=O)n3C)CC1 [KMUP-2, 7-[2-[4-(2-methoxyphenyl)piperazinyl]-ethyl]-1,3-dimethylxanthine]	21±2.1	significantly increased	significantly inhibited	concentration-dependent relaxant activities	additive effect	7.58±0.02	8.37±0.03	5.69±0.02	6.61±0.12	significantly increased	significantly inhibited	–	–	–	–	–	–	–	–
CCCc1nn(C)c2c(=O)[nH]c(-c3cc(S(=O)(=O)N4CCN(C)CC4)ccc3OCC)nc12 [sildenafil, reference compound]	–	significant elevation	–	–	–	–	–	–	–	significant elevation	–	19 ± 3.32	28 ± 3.21	24 ± 3.45	32 ± 4.05	28 ± 4.59	40 ± 11.05	dose-dependent elevations	increased the cGMP levels
